Test results: patent publication US20150141381A1, “TETRACYCLINE COMPOUNDS HAVING TARGET THERAPEUTIC ACTIVITIES” (Paratek Pharmaceuticals, Inc., priority 2001, published 2015)
Read-outs that look alike come from different tables or passages of the source.

Assays:
S. aureus RN450 = test: In Vitro Anti-Bacterial Activity Assay (MIC), gram positive; assay type: cell-based; settings: Staphylococcus aureus, RN450, 18 h
E. coli mL308 225 = test: In Vitro Anti-Bacterial Activity Assay (MIC), gram negative; assay type: cell-based; settings: Escherichia coli, ML308225, 18 h
[1] = read-out: Antibiotic Activity Gram + (MIC)
[2] = read-out: Antibiotic Activity Gram − (MIC)
[3] = gram positive bacteria, read-out: Antibiotic Activity Gram + (MIC)
[4] = gram negative bacteria, read-out: Antibiotic Activity Gram − (MIC)
[5] = MIC class, Table 3, read-out: Antibiotic Activity Gram +
[6] = MIC class, Table 3, read-out: Antibiotic Activity Gram −

SMILES	MIC (S. aureus RN450; [3]) [µg/mL]	MIC (E. coli mL308 225; [4]) [µg/mL]	also measured
CCOP(=O)(OCC)C(Nc1ccc2c(c1O)C(=O)C1=C(O)[C@]3(O)C(=O)C(C(N)=O)=C(O)[C@@H](N(C)C)[C@@H]3[C@@H](O)[C@@H]1[C@H]2C)c1ccccc1 (stereo partly drawn)			MIC (S. aureus RN450; read-out: Gram+ activity): < 4 µg/mL; MIC (E. coli mL308 225; read-out: Gram− activity): > 4 µg/mL
CCOP(=O)(OCC)C(Nc1ccc2c(c1O)C(=O)C1=C(O)[C@]3(O)C(=O)C(C(N)=O)=C(O)[C@@H](N(C)C)[C@@H]3[C@@H](O)[C@@H]1[C@H]2C)c1ccc(OC)cc1 (stereo partly drawn)			MIC (S. aureus RN450; read-out: Gram+ activity): < 4 µg/mL; MIC (E. coli mL308 225; read-out: Gram− activity): > 4 µg/mL
CN(C)[C@@H]1C(O)=C(C(N)=O)C(=O)[C@@]2(O)C(O)=C3C(=O)c4c(ccc(NC(=O)Oc5ccc(F)cc5)c4O)C[C@H]3C[C@@H]12			MIC (S. aureus RN450; read-out: Gram+ activity): > 4 µg/mL; MIC (E. coli mL308 225; read-out: Gram− activity): > 4 µg/mL
CN(C)c1cc(NC(=O)Oc2ccc(O)cc2)c(O)c2c1C[C@H]1C[C@H]3[C@H](N(C)C)C(O)=C(C(N)=O)C(=O)[C@@]3(O)C(O)=C1C2=O			MIC (S. aureus RN450; [1]): > 4 µg/mL; MIC (E. coli mL308 225; [2]): > 4 µg/mL
Cc1ccc(-c2ccc(O)c3c2C[C@H]2C[C@H]4[C@H](N(C)C)C(O)=C(C(N)=O)C(=O)[C@@]4(O)C(O)=C2C3=O)cc1N	< 4	< 4	
CN(C)[C@@H]1C(O)=C(C(N)=O)C(=O)[C@@]2(O)C(O)=C3C(=O)c4c(O)ccc(-c5ccc(CO)cc5)c4C[C@H]3C[C@@H]12	< 4	< 4	
CN(C)[C@@H]1C(O)=C(C(N)=O)C(=O)[C@@]2(O)C(O)=C3C(=O)c4c(O)ccc(-c5ccc(F)c(C=O)c5)c4C[C@H]3C[C@@H]12	< 4	< 4	
CN(C)[C@@H]1C(O)=C(C(N)=O)C(=O)[C@@]2(O)C(O)=C3C(=O)c4c(O)ccc(-c5cc(F)cc(F)c5)c4C[C@H]3C[C@@H]12	< 4	< 4	
C[C@H]1c2ccc(-c3ccc(C=O)c4ccccc34)c(O)c2C(=O)C2=C(O)[C@]3(O)C(=O)C(C(N)=O)=C(O)[C@@H](N(C)C)[C@@H]3[C@@H](O)[C@@H]21	< 4	< 4	
C[C@H]1c2ccc(-c3ccc(C=O)cc3)c(O)c2C(=O)C2=C(O)[C@]3(O)C(=O)C(C(N)=O)=C(O)[C@@H](N(C)C)[C@@H]3[C@@H](O)[C@@H]21	< 4	< 4	
C[C@H]1c2ccc(-c3cccc(C=O)c3)c(O)c2C(=O)C2=C(O)[C@]3(O)C(=O)C(C(N)=O)=C(O)[C@@H](N(C)C)[C@@H]3[C@@H](O)[C@@H]21	< 4	< 4	
COc1ccc(-c2ccc3c(c2O)C(=O)C2=C(O)[C@]4(O)C(=O)C(C(N)=O)=C(O)[C@@H](N(C)C)[C@@H]4[C@@H](O)[C@@H]2[C@H]3C)cc1CC1CCCC1	> 4	> 4	
CNCOc1ccc(-c2ccc(O)c3c2C[C@H]2C[C@H]4[C@H](N(C)C)C(O)=C(C(N)=O)C(=O)[C@@]4(O)C(O)=C2C3=O)cc1	< 4	< 4	
CC(=O)c1cc(C(C)(C)C)c(O)c2c1C[C@H]1C[C@H]3[C@H](N(C)C)C(O)=C(C(N)=O)C(=O)[C@@]3(O)C(O)=C1C2=O	< 4	< 4	
CN(C)c1cc(CCC2(O)CCCC2)c(O)c2c1C[C@H]1C[C@H]3[C@H](N(C)C)C(O)=C(C(N)=O)C(=O)[C@@]3(O)C(O)=C1C2=O	> 4	> 4	
C[C@H]1c2c(-c3ccccc3)cc(-c3ccccc3)c(O)c2C(=O)C2=C(O)[C@]3(O)C(=O)C(C(N)=O)=C(O)[C@@H](N(C)C)[C@@H]3[C@@H](O)[C@@H]21	< 4	< 4	
CO/N=C/c1ccc(OC)c(-c2ccc(O)c3c2C[C@H]2C[C@H]4[C@H](N(C)C)C(O)=C(C(N)=O)C(=O)[C@@]4(O)C(O)=C2C3=O)c1	< 4	< 4	
C=C(Cl)c1cc(C(C)(C)C)c(O)c2c1C[C@H]1C[C@H]3[C@H](N(C)C)C(O)=C(C(N)=O)C(=O)[C@@]3(O)C(O)=C1C2=O	< 4	< 4	
CN(C)[C@@H]1C(O)=C(C(N)=O)C(=O)[C@@]2(O)C(O)=C3C(=O)c4c(O)ccc(-c5ccc(F)c(F)c5)c4C[C@H]3C[C@@H]12	< 4	< 4	
C[C@H]1c2ccc(-c3cc4ccccc4s3)c(O)c2C(=O)C2=C(O)[C@]3(O)C(=O)C(C(N)=O)=C(O)[C@@H](N(C)C)[C@@H]3[C@@H](O)[C@@H]21	< 4	< 4	
CC(=O)c1ccc(-c2ccc3c(c2O)C(=O)C2=C(O)[C@]4(O)C(=O)C(C(N)=O)=C(O)[C@@H](N(C)C)[C@@H]4[C@@H](O)[C@@H]2[C@H]3C)cc1	< 4	< 4	
COC(=O)C(CO)NC(=O)c1cccc(-c2ccc(O)c3c2C[C@H]2C[C@H]4[C@H](N(C)C)C(O)=C(C(N)=O)C(=O)[C@@]4(O)C(O)=C2C3=O)c1 (stereo partly drawn)	< 4	> 4	
CC(=O)CCC(=O)Nc1ccc2c(c1O)C(=O)C1=C(O)[C@]3(O)C(=O)C(C(N)=O)=C(O)[C@@H](N(C)C)[C@@H]3C[C@@H]1C2	> 4	> 4	

SMILES	MIC (S. aureus RN450; [3]) [µg/mL]	MIC (E. coli mL308 225; [4]) [µg/mL]	also measured
CONC(=O)c1cccc(-c2ccc(O)c3c2C[C@H]2C[C@H]4[C@H](N(C)C)C(O)=C(C(N)=O)C(=O)[C@@]4(O)C(O)=C2C3=O)c1	< 4	> 4	
CCc1cc(N)c(O)c2c1C[C@H]1C[C@H]3[C@H](N(C)C)C(O)=C(C(N)=O)C(=O)[C@@]3(O)C(O)=C1C2=O	< 4	< 4	
CC(=O)Nc1ccc2c(c1O)C(=O)C1=C(O)[C@]3(O)C(=O)C(C(N)=O)=C(O)[C@@H](N(C)C)[C@@H]3C[C@@H]1C2	< 4	> 4	
CN(C)[C@@H]1C(O)=C(C(N)=O)C(=O)[C@@]2(O)C(O)=C3C(=O)c4c(O)ccc(CNC(=O)c5cc(O)ncn5)c4C[C@H]3C[C@@H]12	< 4	> 4	
CN1CCC(Nc2ccc3c(c2O)C(=O)C2=C(O)[C@]4(O)C(=O)C(C(N)=O)=C(O)[C@@H](N(C)C)[C@@H]4C[C@@H]2C3)CC1	< 4	> 4	
CN(C)[C@@H]1C(O)=C(C(N)=O)C(=O)[C@@]2(O)C(O)=C3C(=O)c4c(O)ccc(CNC(=O)c5ccccn5)c4C[C@H]3C[C@@H]12	< 4	> 4	
CN(C)[C@@H]1C(O)=C(C(N)=O)C(=O)[C@@]2(O)C(O)=C3C(=O)c4c(O)ccc(CNC(=O)c5cnoc5)c4C[C@H]3C[C@@H]12	< 4	> 4	
CC(NNC(N)=O)c1ccc(O)c2c1C[C@H]1C[C@H]3[C@H](N(C)C)C(O)=C(C(N)=O)C(=O)[C@@]3(O)C(O)=C1C2=O (stereo partly drawn)	< 4	> 4	
CN(C)[C@@H]1C(O)=C(C(N)=O)C(=O)[C@@]2(O)C(O)=C3C(=O)c4c(O)c(CNC(=O)C5CC5)cc(-c5ccc(C(C)(C)C)cc5)c4C[C@H]3C[C@@H]12	< 4	< 4	
CC(C)CN(Cc1ccc(O)c2c1C[C@H]1C[C@H]3[C@H](N(C)C)C(O)=C(C(N)=O)C(=O)[C@@]3(O)C(O)=C1C2=O)CC(C)C	< 4	< 4	
CN(C)[C@@H]1C(O)=C(C(N)=O)C(=O)[C@@]2(O)C(O)=C3C(=O)c4c(O)ccc(C(=O)O)c4C[C@H]3C[C@@H]12	> 4	> 4	
CC(CF)N(C)Cc1cc(N(C)C)c2c(c1O)C(=O)C1=C(O)[C@]3(O)C(=O)C(C(N)=O)=C(O)[C@@H](N(C)C)[C@@H]3C[C@@H]1C2 (stereo partly drawn)			MIC (S. aureus RN450; [1]): < 4 µg/mL; MIC (E. coli mL308 225; [2]): > 4 µg/mL
CNC(=O)Oc1ccc(-c2ccc(O)c3c2C[C@H]2C[C@H]4[C@H](N(C)C)C(O)=C(C(N)=O)C(=O)[C@@]4(O)C(O)=C2C3=O)cc1			MIC (S. aureus RN450; [1]): < 4 µg/mL; MIC (E. coli mL308 225; [2]): < 4 µg/mL
CCOP(=O)(OCC)C(Nc1cc(N(C)C)c2c(c1O)C(=O)C1=C(O)[C@]3(O)C(=O)C(C(N)=O)=C(O)[C@@H](N(C)C)[C@@H]3C[C@@H]1C2)c1ccccc1 (stereo partly drawn) [AA]			MIC (S. aureus RN450; read-out: Antibiotic Activity Gram +): > 4 µg/mL; MIC (E. coli mL308 225; read-out: Antibiotic Activity Gram −): > 4 µg/mL
CN(C)[C@@H]1C(O)=C(C(N)=O)C(=O)[C@@]2(O)C(O)=C3C(=O)c4c(O)ccc(-c5ccc(F)cc5F)c4C[C@H]3C[C@@H]12 [AB]			MIC (S. aureus RN450; [5]): < 4 µg/mL; MIC (E. coli mL308 225; [6]): > 4 µg/mL
CN(C)[C@@H]1C(O)=C(C(N)=O)C(=O)[C@@]2(O)C(O)=C3C(=O)c4c(O)cccc4/C(=C\c4ccc(C(F)(F)F)cc4)[C@H]3[C@H](O)[C@@H]12 [AC]			MIC (S. aureus RN450; [5]): < 4 µg/mL; MIC (E. coli mL308 225; [6]): > 4 µg/mL
CN(C)C(=O)c1cccc(-c2ccc(O)c3c2C[C@H]2C[C@H]4[C@H](N(C)C)C(O)=C(C(N)=O)C(=O)[C@@]4(O)C(O)=C2C3=O)c1 [AD]			MIC (S. aureus RN450; [5]): < 4 µg/mL; MIC (E. coli mL308 225; [6]): > 4 µg/mL
CN(C)c1cc(NS(=O)(=O)c2ccccc2)c(O)c2c1C[C@H]1C[C@H]3[C@H](N(C)C)C(O)=C(C(N)=O)C(=O)[C@@]3(O)C(O)=C1C2=O [AE]			MIC (S. aureus RN450; [5]): < 4 µg/mL; MIC (E. coli mL308 225; [6]): < 4 µg/mL
CN(C)c1cc(-c2ccc(Cl)cc2)c(O)c2c1C[C@H]1C[C@H]3[C@H](N(C)C)C(O)=C(C(N)=O)C(=O)[C@@]3(O)C(O)=C1C2=O [AF]			MIC (S. aureus RN450; [5]): < 4 µg/mL; MIC (E. coli mL308 225; [6]): > 4 µg/mL
CCOc1ccccc1-c1ccc(O)c2c1C[C@H]1C[C@H]3[C@H](N(C)C)C(O)=C(C(N)=O)C(=O)[C@@]3(O)C(O)=C1C2=O [AG]			MIC (S. aureus RN450; [5]): < 4 µg/mL; MIC (E. coli mL308 225; [6]): > 4 µg/mL
CN(C)c1cc(-c2cccc(N)c2)c(O)c2c1C[C@H]1C[C@H]3[C@H](N(C)C)C(O)=C(C(N)=O)C(=O)[C@@]3(O)C(O)=C1C2=O [AH]			MIC (S. aureus RN450; [5]): < 4 µg/mL; MIC (E. coli mL308 225; [6]): > 4 µg/mL
CN(C)c1cc(-c2ccc(Cl)c(Cl)c2)c(O)c2c1C[C@H]1C[C@H]3[C@H](N(C)C)C(O)=C(C(N)=O)C(=O)[C@@]3(O)C(O)=C1C2=O [AI]			MIC (S. aureus RN450; [5]): < 4 µg/mL; MIC (E. coli mL308 225; [6]): > 4 µg/mL
